# Laboratory results published in ChEMBL document CHEMBL1201862, “PubChem BioAssay data set” (2004).
# Calls of active or inactive are those of the source.
# What was measured:
# [1] = inhibitors of Trypanosoma cruzi host-cell infection, confirmation, beta-gal luminescence, NIH3T3 host cells (AID 2630); type: functional, cell-based; conditions: Mus musculus
# [2] = test system: Trypanosoma cruzi; assay: growth inhibition of intracellular Trypanosoma cruzi, dose response, cell-based, plate reader, dry powder, set 3 (AID 493197); type: functional
# [3] = insulin promoter down-regulators in MIN6 cells, imaging, high-content screening, mouse beta cells (AID 1628); type: functional
# [4] = cytotoxicity in MIN6 insulinoma cells, dose response, cytotoxicity control, cell-based, mouse insulinoma (AID 2122); type: functional;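 further: confirmatory high-throughput counterscreen run to flag cytotoxic compounds; mouse MIN-6 beta cells carrying an insulin promoter eGFP reporter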
# [5] = molecular target: Trypsin (Sus scrofa, UniProt P00761); assay: porcine trypsin inhibitors, dose response, selectivity assay for Rce1 protease inhibitor project, biochemical, quenched peptide fluorescence, cherry-pick (AID 488789)
# Trypsin, sequence (P00761 whole entry): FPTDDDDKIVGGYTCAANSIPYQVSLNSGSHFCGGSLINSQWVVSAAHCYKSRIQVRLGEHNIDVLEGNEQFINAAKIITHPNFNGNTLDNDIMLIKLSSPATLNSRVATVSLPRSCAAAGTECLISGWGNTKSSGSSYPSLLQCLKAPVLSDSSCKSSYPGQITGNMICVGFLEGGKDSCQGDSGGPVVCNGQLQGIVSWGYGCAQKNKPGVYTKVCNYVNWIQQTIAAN
# [6] = molecular target: CAAX prenyl protease 2 (Homo sapiens, UniProt Q9Y256); assay: human Rce1 protease inhibitors, dose response, biochemical, yeast membranes, quenched-peptide fluorescence, cherry-pick (AID 588849)
# [7] = molecular target: CAAX prenyl protease 1 (Saccharomyces cerevisiae S288c, UniProt P47154); assay: Ste24 protease inhibitors, dose response, biochemical, S. cerevisiae, plate reader, cherry-pick (AID 488815)
# [8] = Luminescence Cell-Based Dose Retest to Confirm Inhibitors of Cancer Stem Cells. [Related pubchem assays (depositor defined):AID2717, AID2721]; type: functional; conditions: Homo sapiens
# [9] = cytotoxicity in HMLE control line with eGFP shRNA, dose response, counter-screen for HMLE_sh_ECad selective toxicity project, cell-based, HMLE_sh_eGFP, luminescence (AID 463074); type: functional, Homo sapiens;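 further: HMLE human mammary epithelial cells expressing control shRNA against eGFP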
# [10] = molecular target: T1, Tyrosine-protein phosphatase non-receptor type 22 (Homo sapiens, UniProt Q9Y2R2); type: functional
# T1 sequence (Q9Y2R2 whole entry): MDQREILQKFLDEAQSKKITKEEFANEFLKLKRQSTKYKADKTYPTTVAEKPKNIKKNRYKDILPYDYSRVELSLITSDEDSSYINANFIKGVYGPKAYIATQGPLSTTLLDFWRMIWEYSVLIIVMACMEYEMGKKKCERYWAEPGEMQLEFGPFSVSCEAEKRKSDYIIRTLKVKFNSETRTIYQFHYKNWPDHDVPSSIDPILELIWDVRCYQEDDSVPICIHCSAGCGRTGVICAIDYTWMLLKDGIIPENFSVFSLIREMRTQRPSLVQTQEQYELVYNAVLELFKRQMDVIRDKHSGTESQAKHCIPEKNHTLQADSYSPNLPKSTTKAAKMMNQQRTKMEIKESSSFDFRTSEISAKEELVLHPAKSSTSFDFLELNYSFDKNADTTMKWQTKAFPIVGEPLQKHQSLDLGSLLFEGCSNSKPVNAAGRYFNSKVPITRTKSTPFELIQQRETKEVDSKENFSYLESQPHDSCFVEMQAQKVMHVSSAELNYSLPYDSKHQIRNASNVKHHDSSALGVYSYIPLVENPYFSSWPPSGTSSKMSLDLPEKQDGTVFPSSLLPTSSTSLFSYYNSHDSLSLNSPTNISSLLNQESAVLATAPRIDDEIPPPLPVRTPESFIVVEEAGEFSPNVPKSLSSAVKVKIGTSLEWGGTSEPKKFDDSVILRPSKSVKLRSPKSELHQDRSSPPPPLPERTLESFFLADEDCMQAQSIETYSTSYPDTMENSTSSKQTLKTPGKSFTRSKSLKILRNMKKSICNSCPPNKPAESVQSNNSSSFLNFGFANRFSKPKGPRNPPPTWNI
# [11] = molecular target: T2, Tyrosine-protein phosphatase non-receptor type 7 (Homo sapiens, UniProt P35236); type: functional
# T2 sequence (P35236 whole entry): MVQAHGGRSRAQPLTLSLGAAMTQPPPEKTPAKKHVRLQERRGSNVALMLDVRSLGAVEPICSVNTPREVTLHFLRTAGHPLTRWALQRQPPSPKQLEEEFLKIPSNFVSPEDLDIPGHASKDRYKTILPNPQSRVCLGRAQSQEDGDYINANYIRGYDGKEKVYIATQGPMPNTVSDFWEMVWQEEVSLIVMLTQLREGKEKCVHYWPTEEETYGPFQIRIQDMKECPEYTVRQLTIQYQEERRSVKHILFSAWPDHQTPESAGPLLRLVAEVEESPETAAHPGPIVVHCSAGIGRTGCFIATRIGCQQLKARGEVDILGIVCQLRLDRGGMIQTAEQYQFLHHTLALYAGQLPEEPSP
# [12] = molecular target: T1, Tyrosine-protein phosphatase non-receptor type 22; type: functional; remark: listed apart in the source
# [13] = molecular target: Intestinal-type alkaline phosphatase (Mus musculus, UniProt P24822); assay: PubChem AID 488874; type: functional
# [14] = molecular target: T3, Alkaline phosphatase, tissue-nonspecific isozyme (Homo sapiens, UniProt P05186); assay: inhibition of tissue-nonspecific alkaline phosphatase – biochemical, dose response (AID 488882); type: functional
# T3 sequence (P05186 whole entry): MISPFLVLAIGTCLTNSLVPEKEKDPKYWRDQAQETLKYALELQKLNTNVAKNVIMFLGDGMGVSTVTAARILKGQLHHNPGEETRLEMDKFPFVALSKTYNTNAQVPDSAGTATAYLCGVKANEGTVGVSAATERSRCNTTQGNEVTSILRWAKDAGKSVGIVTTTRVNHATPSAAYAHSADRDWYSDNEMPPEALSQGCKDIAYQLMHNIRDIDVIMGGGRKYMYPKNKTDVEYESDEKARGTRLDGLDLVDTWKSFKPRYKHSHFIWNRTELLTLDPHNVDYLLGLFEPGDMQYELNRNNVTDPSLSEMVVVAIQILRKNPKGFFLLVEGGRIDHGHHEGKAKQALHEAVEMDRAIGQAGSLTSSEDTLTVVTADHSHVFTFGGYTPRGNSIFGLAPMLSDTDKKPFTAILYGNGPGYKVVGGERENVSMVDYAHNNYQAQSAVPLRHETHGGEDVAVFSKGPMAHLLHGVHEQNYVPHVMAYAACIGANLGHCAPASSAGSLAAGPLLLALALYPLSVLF
# [15] = molecular target: T4, Intestinal-type alkaline phosphatase (Homo sapiens, UniProt P09923); assay: Dose Response confirmation of uHTS hits from a small molecule inhibitors of human intestinal alkaline phosphatase via a luminescent assay. [Related pubchem assays (depositor defined):AID2544, AID2574]; type: functional
# T4 sequence (P09923 whole entry): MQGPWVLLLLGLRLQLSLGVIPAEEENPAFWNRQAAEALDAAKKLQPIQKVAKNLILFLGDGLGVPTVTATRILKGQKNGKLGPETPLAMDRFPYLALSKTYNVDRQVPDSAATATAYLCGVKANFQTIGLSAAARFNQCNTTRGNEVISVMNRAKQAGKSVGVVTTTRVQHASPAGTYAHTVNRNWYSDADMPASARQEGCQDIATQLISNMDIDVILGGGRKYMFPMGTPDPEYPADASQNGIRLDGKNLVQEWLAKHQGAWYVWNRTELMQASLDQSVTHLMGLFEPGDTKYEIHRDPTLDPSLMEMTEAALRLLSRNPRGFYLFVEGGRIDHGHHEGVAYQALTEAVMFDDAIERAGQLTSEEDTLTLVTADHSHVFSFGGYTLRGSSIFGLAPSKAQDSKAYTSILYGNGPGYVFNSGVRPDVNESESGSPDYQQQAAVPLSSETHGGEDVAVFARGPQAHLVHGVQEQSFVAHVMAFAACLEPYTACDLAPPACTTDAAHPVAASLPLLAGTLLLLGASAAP
# [16] = molecular target: T4, Intestinal-type alkaline phosphatase; assay: human IAP inhibitors, dose response, biochemical, luminescent, uHTS hits, set 2 (AID 488793); type: functional
# [17] = C. albicans growth with fluconazole, confirmation, fluorescence, retest (AID 2467); type: functional, cell-based
# [18] = human group III sPLA2 inhibitors, dose response, biochemical, QFRET, IC50 (AID 743457);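 further: green fluorescence rise as the enzyme cleaves BODIPY PC-A2 in liposomes; potency for inhibition of the enzyme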
# [19] = test system: Vero; assay: cells; type: functional; conditions: Chlorocebus sabaeus
# [20] = NIH-3T3 fibroblast cytotoxicity, dose response, cytotoxicity control, cell-based, fluorescence, Alamar Blue, secondary assay (AID 2327); type: functional;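 further: NIH-3T3 mouse fibroblasts cultured with fluconazole at 8 µg/mL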
# [21] = Counterscreen for AddAB inhibitors: absorbance-based bacterial cell-based high throughput dose response assay for inhibitors of bacterial viability. [Related pubchem assays (depositor defined):AID435030, AID449728, AID449731, AID488942, AID488955, AID488956]; type: functional
# [22] = molecular target: Exodeoxyribonuclease V (Escherichia coli (strain K12), UniProt P04993+P07648+P08394); assay: E. coli RecBCD inhibitors, dose response, counter-screen for AddAB inhibitor project, absorbance, V66 E. coli, mutant T4 phage (AID 492957); type: functional, cell-based, Escherichia coli str. K-12 substr. MG1655
# Exodeoxyribonuclease V, sequence (P04993 whole entry): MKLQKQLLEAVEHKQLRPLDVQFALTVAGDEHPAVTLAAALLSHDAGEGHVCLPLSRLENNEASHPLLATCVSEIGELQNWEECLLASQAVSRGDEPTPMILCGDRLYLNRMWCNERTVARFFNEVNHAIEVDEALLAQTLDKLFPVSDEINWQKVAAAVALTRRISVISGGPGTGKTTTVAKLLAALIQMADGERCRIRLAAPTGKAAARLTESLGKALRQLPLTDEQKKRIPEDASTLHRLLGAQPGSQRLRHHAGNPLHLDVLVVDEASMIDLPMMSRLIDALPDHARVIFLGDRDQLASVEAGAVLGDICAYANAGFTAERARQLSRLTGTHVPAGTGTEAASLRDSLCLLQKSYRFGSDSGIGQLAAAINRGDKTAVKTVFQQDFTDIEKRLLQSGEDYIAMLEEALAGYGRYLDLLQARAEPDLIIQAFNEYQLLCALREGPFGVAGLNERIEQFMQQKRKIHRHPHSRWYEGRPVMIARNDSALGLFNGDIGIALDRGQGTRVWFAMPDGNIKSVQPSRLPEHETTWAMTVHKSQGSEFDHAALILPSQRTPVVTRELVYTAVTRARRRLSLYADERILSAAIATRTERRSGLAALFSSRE
# Exodeoxyribonuclease V, sequence (P07648 whole entry): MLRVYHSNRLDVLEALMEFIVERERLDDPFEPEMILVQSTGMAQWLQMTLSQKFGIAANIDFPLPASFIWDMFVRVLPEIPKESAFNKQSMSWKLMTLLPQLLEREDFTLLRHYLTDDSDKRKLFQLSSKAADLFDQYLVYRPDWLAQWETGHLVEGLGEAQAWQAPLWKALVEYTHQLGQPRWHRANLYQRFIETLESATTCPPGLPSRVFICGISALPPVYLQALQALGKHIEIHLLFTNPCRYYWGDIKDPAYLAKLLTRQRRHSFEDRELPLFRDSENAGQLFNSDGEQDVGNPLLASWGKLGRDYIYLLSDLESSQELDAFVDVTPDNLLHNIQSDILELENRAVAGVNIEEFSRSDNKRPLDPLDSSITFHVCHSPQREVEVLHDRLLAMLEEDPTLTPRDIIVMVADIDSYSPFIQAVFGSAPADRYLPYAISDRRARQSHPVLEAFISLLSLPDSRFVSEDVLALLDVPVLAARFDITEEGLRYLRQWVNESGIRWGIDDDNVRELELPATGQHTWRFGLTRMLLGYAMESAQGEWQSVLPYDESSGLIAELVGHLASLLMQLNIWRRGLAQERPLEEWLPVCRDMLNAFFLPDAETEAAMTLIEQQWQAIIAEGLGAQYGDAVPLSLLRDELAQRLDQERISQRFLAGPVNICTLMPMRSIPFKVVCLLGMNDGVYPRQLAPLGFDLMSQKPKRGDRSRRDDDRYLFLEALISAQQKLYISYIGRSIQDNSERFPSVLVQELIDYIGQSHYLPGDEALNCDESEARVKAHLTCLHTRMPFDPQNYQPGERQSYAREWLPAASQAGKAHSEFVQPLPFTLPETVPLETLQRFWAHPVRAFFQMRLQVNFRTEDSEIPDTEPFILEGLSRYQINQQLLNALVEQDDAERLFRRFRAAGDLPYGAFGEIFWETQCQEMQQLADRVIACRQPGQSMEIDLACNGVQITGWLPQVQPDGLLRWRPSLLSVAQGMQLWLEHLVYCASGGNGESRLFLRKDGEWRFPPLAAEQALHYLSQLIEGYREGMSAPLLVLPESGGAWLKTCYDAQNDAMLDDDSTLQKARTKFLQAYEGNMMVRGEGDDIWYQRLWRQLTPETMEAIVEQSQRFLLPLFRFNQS
# Exodeoxyribonuclease V, sequence (P08394 whole entry): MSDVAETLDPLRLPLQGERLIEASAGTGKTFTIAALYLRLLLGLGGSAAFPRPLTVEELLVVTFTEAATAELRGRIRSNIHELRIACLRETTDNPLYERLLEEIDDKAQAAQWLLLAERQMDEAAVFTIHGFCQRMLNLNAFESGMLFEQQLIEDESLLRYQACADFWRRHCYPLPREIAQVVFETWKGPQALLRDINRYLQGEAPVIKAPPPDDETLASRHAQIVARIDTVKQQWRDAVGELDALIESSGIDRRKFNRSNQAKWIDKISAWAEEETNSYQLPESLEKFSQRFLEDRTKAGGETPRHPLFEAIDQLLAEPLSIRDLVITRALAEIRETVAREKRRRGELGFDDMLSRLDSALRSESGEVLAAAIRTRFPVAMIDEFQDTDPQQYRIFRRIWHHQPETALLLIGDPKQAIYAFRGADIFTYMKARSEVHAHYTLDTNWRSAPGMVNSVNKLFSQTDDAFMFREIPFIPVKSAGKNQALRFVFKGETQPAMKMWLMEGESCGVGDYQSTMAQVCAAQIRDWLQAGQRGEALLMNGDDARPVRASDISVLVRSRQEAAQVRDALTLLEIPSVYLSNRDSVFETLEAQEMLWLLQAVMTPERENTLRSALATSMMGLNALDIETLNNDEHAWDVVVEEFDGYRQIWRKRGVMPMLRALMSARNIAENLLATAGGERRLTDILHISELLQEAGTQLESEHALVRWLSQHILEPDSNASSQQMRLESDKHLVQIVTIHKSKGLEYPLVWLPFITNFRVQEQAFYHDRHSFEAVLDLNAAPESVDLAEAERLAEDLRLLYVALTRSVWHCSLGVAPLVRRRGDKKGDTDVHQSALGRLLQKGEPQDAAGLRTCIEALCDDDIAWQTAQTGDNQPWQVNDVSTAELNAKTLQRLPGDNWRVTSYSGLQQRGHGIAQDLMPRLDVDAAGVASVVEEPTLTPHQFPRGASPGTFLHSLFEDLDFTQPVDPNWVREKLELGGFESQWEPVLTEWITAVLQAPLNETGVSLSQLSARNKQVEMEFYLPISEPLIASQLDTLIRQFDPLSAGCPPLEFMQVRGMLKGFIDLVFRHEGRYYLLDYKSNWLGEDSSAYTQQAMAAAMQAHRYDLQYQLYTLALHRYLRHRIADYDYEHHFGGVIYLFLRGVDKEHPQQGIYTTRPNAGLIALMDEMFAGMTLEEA
# [23] = molecular target: Tumor necrosis factor (Homo sapiens, UniProt P01375); assay: TNFa-triggered NF-kB activation inhibitors, SAR follow-up, cell-based, revised (AID 2337); type: functional
# [24] = molecular target: Nucleotide-binding oligomerization domain-containing protein 1 (Homo sapiens, UniProt Q9Y239); assay: NOD1 signaling inhibitors, SAR follow-up, revised (AID 2333); type: functional
# Nucleotide-binding oligomerization domain-containing protein 1, sequence (Q9Y239 whole entry, the tested form may be a part): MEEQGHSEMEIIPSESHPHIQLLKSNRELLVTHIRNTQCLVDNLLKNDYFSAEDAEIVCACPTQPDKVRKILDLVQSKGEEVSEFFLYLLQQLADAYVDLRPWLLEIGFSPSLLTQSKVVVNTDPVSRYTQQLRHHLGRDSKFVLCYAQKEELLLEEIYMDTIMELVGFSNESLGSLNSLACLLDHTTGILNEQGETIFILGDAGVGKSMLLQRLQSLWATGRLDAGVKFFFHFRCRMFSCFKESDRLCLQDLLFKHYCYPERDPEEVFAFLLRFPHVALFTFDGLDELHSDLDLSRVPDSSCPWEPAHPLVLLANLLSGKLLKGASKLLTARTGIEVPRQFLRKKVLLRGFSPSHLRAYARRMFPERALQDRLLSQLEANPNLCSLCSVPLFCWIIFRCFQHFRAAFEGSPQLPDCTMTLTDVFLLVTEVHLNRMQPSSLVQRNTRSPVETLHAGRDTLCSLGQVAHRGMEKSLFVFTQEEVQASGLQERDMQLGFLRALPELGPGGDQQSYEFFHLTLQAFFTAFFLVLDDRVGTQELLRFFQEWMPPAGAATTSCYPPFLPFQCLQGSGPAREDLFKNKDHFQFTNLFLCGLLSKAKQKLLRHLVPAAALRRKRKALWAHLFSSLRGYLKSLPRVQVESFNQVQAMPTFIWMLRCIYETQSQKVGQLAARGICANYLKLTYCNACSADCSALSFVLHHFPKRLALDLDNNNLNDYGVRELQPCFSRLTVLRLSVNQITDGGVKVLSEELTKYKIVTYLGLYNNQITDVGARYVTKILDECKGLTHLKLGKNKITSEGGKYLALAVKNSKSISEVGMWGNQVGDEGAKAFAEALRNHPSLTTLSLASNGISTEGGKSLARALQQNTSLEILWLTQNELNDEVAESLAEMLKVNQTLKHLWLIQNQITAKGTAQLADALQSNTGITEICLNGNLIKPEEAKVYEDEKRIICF
# [25] = test system: HEK293; assay: cells; conditions: Homo sapiens;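 further: cells exposed to compound for 14 hours overnight before viability readout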
# [26] = molecular target: Sphingosine 1-phosphate receptor 1 (Homo sapiens, UniProt P21453); assay: Late stage counterscreen assay for S1P4 antagonists: Fluorescence dose response cell-based screening assay for antagonists of the Sphingosine 1-Phosphate Receptor 1 (S1P1). [Related pubchem assays (depositor defined):AID1510, AID1524, AID1692, AID1853, AID2332, AID489009, AID489017]; type: functional
# [27] = molecular target: Sphingosine 1-phosphate receptor 3 (Homo sapiens, UniProt Q99500); assay: Late stage counterscreen assay for S1P4 antagonists: Fluorescence dose response cell-based screening assay for antagonists of the Sphingosine 1-Phosphate Receptor 3 (S1P3). [Related pubchem assays (depositor defined):AID1510, AID1524, AID1692, AID1853, AID2332, AID489009, AID489017]; type: functional
# [28] = molecular target: Sphingosine 1-phosphate receptor 2 (Homo sapiens, UniProt O95136); assay: Late stage counterscreen assay for S1P4 antagonists: Fluorescence dose response cell-based screening assay for antagonists of the Sphingosine 1-Phosphate Receptor 2 (S1P2). [Related pubchem assays (depositor defined):AID1510, AID1524, AID1692, AID1853, AID2332, AID489009, AID489017]; type: functional
# Sphingosine 1-phosphate receptor 2, sequence (O95136 whole entry): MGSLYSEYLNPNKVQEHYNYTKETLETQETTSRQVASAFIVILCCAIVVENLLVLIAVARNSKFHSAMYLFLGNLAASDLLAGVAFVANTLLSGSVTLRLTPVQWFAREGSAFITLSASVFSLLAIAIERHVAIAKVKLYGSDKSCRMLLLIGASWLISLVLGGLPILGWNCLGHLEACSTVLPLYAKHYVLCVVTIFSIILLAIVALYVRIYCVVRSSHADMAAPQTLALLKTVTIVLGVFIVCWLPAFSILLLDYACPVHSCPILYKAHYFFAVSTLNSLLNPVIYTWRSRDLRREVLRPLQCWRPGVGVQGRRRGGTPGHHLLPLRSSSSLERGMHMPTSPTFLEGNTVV
# [29] = molecular target: Sphingosine 1-phosphate receptor 5 (Homo sapiens, UniProt Q9H228); assay: Late stage counterscreen assay for S1P4 antagonists: Fluorescence dose response cell-based screening assay for antagonists of the Sphingosine 1-Phosphate Receptor 5 (S1P5). [Related pubchem assays (depositor defined):AID1510, AID1524, AID1692, AID1853, AID2332, AID489009, AID489017]; type: functional
compound,measurement,setting,value
COc1ccc(CN2CCCC(C(=O)N3CCCC3)C2)c(OC)c1OC (centres undefined),EC50,[1],0.042 µM (active)
same,AC50,[2],1.01 µM (active)
CCn1c(SCc2ccccc2)nnc1-c1cccs1,IC50,[3],3.63 µM (active)
same,IC50,[4],2.36 µM (active)
CCN(CC)CCn1c2ccccc2c2cnc(/N=C/N(C)C)c(C#N)c21,AC50,[5],18 µM (active)
same,AC50,[6],11.4 µM (active)
same,AC50,[7],4.5 µM (active)
Cc1ccc(-c2ccc(OC(=O)c3ccc(O)nc3)c(C)c2)cc1,AC50,[8],17.5 µM (active)
same,AC50,[9],29.1 µM (active)
COc1ccc2c(OC)cc(=O)n(C)c2c1,IC50,[10],> 79.4 µM (inactive)
same,IC50,[11],> 79.4 µM (inactive)
same,IC50,[12],> 79.4 µM (inactive)
O=C(/C=C/c1ccccc1O)c1ccco1,IC50,[13],62.9 µM (active)
same,IC50,[14],71.8 µM (active)
same,IC50,[15],47.6 µM (inactive)
same,IC50,[16],75.8 µM (active)
O=C(NC(=S)NNC(=O)c1cc2ccccc2cc1O)c1ccco1,EC50,[17],2.19 µM (active)
same,IC50,[18],> 40.6 µM (inactive)
same,CC50,[19],14.4 µM (active)
same,EC50,[20],> 160 µM (inactive)
same,IC50,[21],> 119 µM (inactive)
same,IC50,[22],> 119 µM (inactive)
COc1ccc(N2CCN(S(=O)(=O)c3ccc4c(c3)CC(C)N4C(C)=O)CC2)cc1 (centres undefined),IC50,[23],4.3 µM (active)
same,IC50,[24],3.63 µM (active)
same,IC50,[25],> 20 µM (inactive)
COc1cccc(OC)c1NC(=O)c1ccc(-c2cc(Cl)ccc2Cl)o1,IC50,[26],> 25 µM (inactive)
same,IC50,[27],10.5 µM (inactive)
same,IC50,[28],20.7 µM (inactive)
same,IC50,[29],> 25 µM (inactive)
